In the supplement of paper PMC4862054:

How the values were obtained:
Assay in all cases: normalised response (% of control), CellTiter-Glo; higher = more viable cells (100 = DMSO, 0 = benzethonium chloride kill control)
Conditions in all cases: incubation time: 72 h
[1] = system: MDA-MB-468
Method in brief: (§1)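 After 72 h with compound in 384-well plates, breast cancer cell lines seeded as 20 µl suspension were read for CellTox Green fluorescence at 485/520 nm. CellTiter-Glo luminescence was then read after 10 min at room temperature. Compound was present at 5 concentrations in 10-fold steps over a 10,000-fold range set per compound, and plates were normalised to 0.1 % DMSO (100) and a positive kill control (0). Values are normalised signals, each at a single concentration.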

[2] = system: BT-549
Method in brief: as §1

[3] = system: MFM-223
Method in brief: as §1

[4] = system: BT-474
Method in brief: as §1

[5] = system: DU-4475
Method in brief: as §1

[6] = system: HCC1937
Method in brief: as §1

[7] = system: Hs578T
Method in brief: as §1

[8] = system: MDA-MB-436
Method in brief: as §1

[9] = system: MDA-MB-231
Method in brief: as §1

[10] = system: HDQ-P1
Method in brief: as §1

[11] = system: CAL-148
Method in brief: as §1

[12] = system: CAL-51
Method in brief: as §1

[13] = system: CAL-85-1
Method in brief: as §1

[14] = system: MCF-10A
Method in brief: as §1

[15] = system: SK-BR-3
Method in brief: as §1

[16] = system: CAL-120
Method in brief: as §1

[17] = system: MDA-MB-453
Method in brief: as §1

[18] = system: HCC1143
Method in brief: as §1

[19] = system: HCC1599
Method in brief: as §1

COc1cc(OC2CCN(C)CC2)ccc1Nc1ncc2c(n1)n(C1CCCC1)c(=O)n2C [AZ 3146] (10 nM)
normalised response [1]: 111% | normalised response [2]: 96.3% | normalised response [3]: 102% | normalised response [4]: 107% | normalised response [5]: 97% | normalised response [6]: 96.1% | normalised response [7]: 93% | normalised response [8]: 98.2% | normalised response [9]: 104% | normalised response [10]: 95.9% | normalised response [11]: 99.7% | normalised response [12]: 132% | normalised response [13]: 102% | normalised response [14]: 95.5% | normalised response [15]: 95.4% | normalised response [16]: 103% | normalised response [17]: 97.8% | normalised response [18]: 100% | normalised response [19]: 95.9%

CNC(=O)c1ccc(N2C(=S)N(c3ccc(C#N)c(C(F)(F)F)c3)C(=O)C23CCC3)cc1F [RD162] (1 nM)
normalised response [1]: 106% | normalised response [2]: 93.8% | normalised response [3]: 99.9% | normalised response [4]: 97% | normalised response [5]: 102% | normalised response [6]: 93.8% | normalised response [7]: 102% | normalised response [8]: 101% | normalised response [9]: 106% | normalised response [10]: 95.9% | normalised response [11]: 104% | normalised response [12]: 108% | normalised response [13]: 96.2% | normalised response [14]: 102% | normalised response [15]: 107% | normalised response [16]: 98% | normalised response [17]: 104% | normalised response [18]: 93.7% | normalised response [19]: 107%

CCOC(=O)CCNc1cc(N2CCc3ccccc3CC2)nc(-c2ccccn2)n1 [GSK-J4] (10 nM)
normalised response [1]: 97.8% | normalised response [2]: 101% | normalised response [3]: 99.4% | normalised response [4]: 97.3% | normalised response [5]: 99% | normalised response [6]: 93.1% | normalised response [7]: 97% | normalised response [8]: 95.8% | normalised response [9]: 95.1% | normalised response [10]: 97.4% | normalised response [11]: 92.8% | normalised response [12]: 102% | normalised response [13]: 93.1% | normalised response [14]: 102% | normalised response [15]: 97.9% | normalised response [16]: 102% | normalised response [17]: 91.9% | normalised response [18]: 92.6% | normalised response [19]: 104%

CCOC(=O)CCNc1cc(N2CCc3ccccc3CC2)nc(-c2ccccn2)n1 [GSK-J4] (100 nM)
normalised response [1]: 95.5% | normalised response [2]: 93.8% | normalised response [3]: 103% | normalised response [4]: 95.7% | normalised response [5]: 95.3% | normalised response [6]: 95.2% | normalised response [7]: 105% | normalised response [8]: 92.6% | normalised response [9]: 92.8% | normalised response [10]: 93.1% | normalised response [11]: 101% | normalised response [12]: 97.8% | normalised response [13]: 100% | normalised response [14]: 97.3% | normalised response [15]: 68.8% | normalised response [16]: 110% | normalised response [17]: 84.8% | normalised response [18]: 97.6% | normalised response [19]: 95.5%

c1ccc2c(CCNc3ccc(Nc4ccncc4)cc3)c[nH]c2c1 [Serdemetan] (10 nM)
normalised response [1]: 95.2% | normalised response [2]: 105% | normalised response [3]: 98.3% | normalised response [4]: 87.6% | normalised response [5]: 102% | normalised response [6]: 99.4% | normalised response [7]: 96.5% | normalised response [8]: 97.9% | normalised response [9]: 97.3% | normalised response [10]: 98.7% | normalised response [11]: 92% | normalised response [12]: 105% | normalised response [13]: 106% | normalised response [14]: 100% | normalised response [15]: 94.3% | normalised response [16]: 91.5% | normalised response [17]: 105% | normalised response [18]: 93.4% | normalised response [19]: 115%

Nc1cc(C(F)(F)F)c(-c2cc(N3CCOCC3)nc(N3CCOCC3)n2)cn1 [Buparlisib] (1 nM)
normalised response [1]: 96.3% | normalised response [2]: 102% | normalised response [3]: 97.1% | normalised response [4]: 98.8% | normalised response [5]: 97.7% | normalised response [6]: 97.1% | normalised response [7]: 97.3% | normalised response [8]: 98.9% | normalised response [9]: 98.7% | normalised response [10]: 97.3% | normalised response [11]: 95% | normalised response [12]: 112% | normalised response [13]: 92.3% | normalised response [14]: 98.8% | normalised response [15]: 101% | normalised response [16]: 103% | normalised response [17]: 101% | normalised response [18]: 92.6% | normalised response [19]: 90.2%

CNC(=O)c1ccc(N2C(=S)N(c3ccc(C#N)c(C(F)(F)F)c3)C(=O)C2(C)C)cc1F [Enzalutamide] (1 nM)
normalised response [1]: 101% | normalised response [2]: 107% | normalised response [3]: 99.6% | normalised response [4]: 97.4% | normalised response [5]: 98.9% | normalised response [6]: 103% | normalised response [7]: 103% | normalised response [8]: 102% | normalised response [9]: 95% | normalised response [10]: 100% | normalised response [11]: 102% | normalised response [12]: 109% | normalised response [13]: 95.6% | normalised response [14]: 105% | normalised response [15]: 108% | normalised response [16]: 98.8% | normalised response [17]: 103% | normalised response [18]: 98.5% | normalised response [19]: 108%

COC(=O)c1ccc2c(c1)NC(=O)/C2=C(\Nc1ccc(N(C)C(=O)CN2CCN(C)CC2)cc1)c1ccccc1 [Nintedanib] (10 nM)
normalised response [1]: 102% | normalised response [2]: 100% | normalised response [3]: 103% | normalised response [4]: 96.9% | normalised response [5]: 103% | normalised response [6]: 97.3% | normalised response [7]: 104% | normalised response [8]: 104% | normalised response [9]: 91.2% | normalised response [10]: 104% | normalised response [11]: 105% | normalised response [12]: 125% | normalised response [13]: 95% | normalised response [14]: 107% | normalised response [15]: 115% | normalised response [16]: 100% | normalised response [17]: 115% | normalised response [18]: 97% | normalised response [19]: 133%

CNC(=O)c1cc(Oc2ccc(NC(=O)Nc3ccc(Cl)c(C(F)(F)F)c3)c(F)c2)ccn1 [Regorafenib] (10 nM)
normalised response [1]: 97.9% | normalised response [2]: 106% | normalised response [3]: 101% | normalised response [4]: 111% | normalised response [5]: 105% | normalised response [6]: 96% | normalised response [7]: 101% | normalised response [8]: 104% | normalised response [9]: 95.2% | normalised response [10]: 102% | normalised response [11]: 109% | normalised response [12]: 108% | normalised response [13]: 100% | normalised response [14]: 113% | normalised response [15]: 110% | normalised response [16]: 94% | normalised response [17]: 117% | normalised response [18]: 100% | normalised response [19]: 108%

CCn1c(-c2nonc2N)nc2cnc(Oc3cccc(NC(=O)c4ccc(OCCN5CCOCC5)cc4)c3)cc21 (1 nM)
normalised response [1]: 95.6% | normalised response [2]: 108% | normalised response [3]: 96.8% | normalised response [4]: 95.1% | normalised response [5]: 94.3% | normalised response [6]: 104% | normalised response [7]: 99.5% | normalised response [8]: 104% | normalised response [9]: 102% | normalised response [10]: 104% | normalised response [11]: 98.6% | normalised response [12]: 114% | normalised response [13]: 101% | normalised response [14]: 102% | normalised response [15]: 102% | normalised response [16]: 41.8% | normalised response [17]: 101% | normalised response [18]: 103% | normalised response [19]: 103%

S=P(N1CC1)(N1CC1)N1CC1 [Thio-TEPA] (50 nM)
normalised response [1]: 95.3% | normalised response [2]: 100% | normalised response [3]: 106% | normalised response [4]: 97% | normalised response [5]: 103% | normalised response [6]: 101% | normalised response [7]: 99.1% | normalised response [8]: 98.5% | normalised response [9]: 96.6% | normalised response [10]: 94.7% | normalised response [11]: 94.2% | normalised response [12]: 71.5% | normalised response [13]: 98.7% | normalised response [14]: 103% | normalised response [15]: 91.5% | normalised response [16]: 93% | normalised response [17]: 98% | normalised response [18]: 95.7% | normalised response [19]: 101%
